One block for each compound: values may come before it.
Biological target: T1, mouse Tas2r108 (Mus musculus, UniProt Q9JKT3)
T1 construct: expressed in transfected cells; host or cells: HEK293T-Gα16gust44
T1 sequence (Q9JKT3 1-297): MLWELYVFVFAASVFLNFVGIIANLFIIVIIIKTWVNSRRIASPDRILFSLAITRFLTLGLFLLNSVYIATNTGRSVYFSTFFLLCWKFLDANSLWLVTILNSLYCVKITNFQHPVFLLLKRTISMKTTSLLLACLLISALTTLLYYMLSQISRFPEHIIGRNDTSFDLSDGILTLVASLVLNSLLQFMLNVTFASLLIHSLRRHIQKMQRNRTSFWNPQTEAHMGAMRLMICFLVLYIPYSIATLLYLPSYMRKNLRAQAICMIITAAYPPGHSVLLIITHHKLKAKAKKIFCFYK
Test: Calcium imaging assay (FLIPR), HEK293T-Gα16gust44 cells transfected with mouse Tas2r108
Assay type: cell-based
Details: for Δ F/F: Tas2r108
Procedure, shortened: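 Bile acids from DMSO stocks are applied to dye-loaded cells one day after transient receptor transfection, and calcium-dependent fluorescence is recorded. Maximum signal is standardized to basal and normalized to buffer-only wells, with empty-vector signal subtracted.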

Structure (SMILES): C[C@H](CCC(=O)NCCS(=O)(=O)O)[C@H]1CC[C@H]2[C@@H]3[C@H](O)C[C@@H]4C[C@H](O)CC[C@]4(C)[C@H]3C[C@H](O)[C@]12C [Taurocholic Acid, taurocholic acid]
Δ F/F (conc. 0,01 mM): 0.0164
Δ F/F (conc. 0,1 mM): 0.02829
Δ F/F (conc. 0,03 mM): 0.01249
Δ F/F (conc. 0,3 mM): 0.06351
Δ F/F (conc. 0,001 mM): 0.009911
Δ F/F (conc. 1 mM): 0.1676
Δ F/F (conc. 0,003 mM): 0.0148
RLU (Time 0 s): 0 RLU
RLU (Time 2 s): -20.2593 RLU
RLU (Time 4 s): -40.462 RLU
RLU (Time 6 s): -30.0161 RLU
RLU (Time 8 s): -12.374 RLU
RLU (Time 12 s): -13.3496 RLU
RLU (Time 14 s): -6.544 RLU
RLU (Time 16 s): -15.3343 RLU
RLU (Time 18 s): -11.3649 RLU
RLU (Time 18.781 s): 0.4416 RLU
RLU (Time 20.781 s): -36.0442 RLU
RLU (Time 22.781 s): -43.651 RLU
RLU (Time 24.781 s): -41.1365 RLU
RLU (Time 26.781 s): -18.6 RLU
RLU (Time 28.781 s): 11.2728 RLU
RLU (Time 30.781 s): 33.5132 RLU
RLU (Time 32.781 s): 71 RLU
RLU (Time 34.781 s): 95.3158 RLU
RLU (Time 36.781 s): 97.2719 RLU
RLU (Time 38.781 s): 144.173 RLU
RLU (Time 40.781 s): 134.881 RLU
RLU (Time 42.781 s): 146.815 RLU
RLU (Time 44.781 s): 188.478 RLU
RLU (Time 46.781 s): 187.465 RLU
RLU (Time 48.781 s): 214.327 RLU
RLU (Time 50.781 s): 211.162 RLU
RLU (Time 52.781 s): 236.861 RLU
RLU (Time 54.781 s): 237.067 RLU
RLU (Time 56.781 s): 230.295 RLU
RLU (Time 58.781 s): 253.142 RLU
RLU (Time 60.781 s): 220.824 RLU
RLU (Time 62.781 s): 245.001 RLU
RLU (Time 64.781 s): 248.53 RLU
RLU (Time 66.781 s): 284.462 RLU
RLU (Time 68.781 s): 254.576 RLU
RLU (Time 70.781 s): 279.831 RLU
RLU (Time 72.781 s): 269.677 RLU
RLU (Time 74.781 s): 263.013 RLU
RLU (Time 76.781 s): 268.161 RLU
RLU (Time 78.781 s): 271.517 RLU
RLU (Time 80.781 s): 261.286 RLU
RLU (Time 82.781 s): 284.591 RLU
RLU (Time 84.781 s): 263.187 RLU
RLU (Time 86.781 s): 264.054 RLU
RLU (Time 88.781 s): 257.931 RLU
RLU (Time 90.781 s): 266.719 RLU
RLU (Time 92.781 s): 280.373 RLU
RLU (Time 94.781 s): 260.776 RLU
RLU (Time 96.781 s): 264.943 RLU
RLU (Time 98.781 s): 262.119 RLU
RLU (Time 100.781 s): 242.991 RLU
RLU (Time 102.781 s): 248.884 RLU
RLU (Time 104.781 s): 234.786 RLU
RLU (Time 106.781 s): 246.521 RLU
RLU (Time 108.781 s): 245.379 RLU
RLU (Time 110.781 s): 221.773 RLU
RLU (Time 112.781 s): 255.593 RLU
RLU (Time 114.781 s): 236.786 RLU
RLU (Time 116.781 s): 246.038 RLU
RLU (Time 118.781 s): 236.543 RLU
RLU (Time 120.781 s): 242.472 RLU
RLU (Time 122.781 s): 225.877 RLU
RLU (Time 124.781 s): 231.718 RLU
RLU (Time 126.781 s): 218.383 RLU
RLU (Time 128.781 s): 219.672 RLU
RLU (Time 130.781 s): 215.513 RLU
RLU (Time 132.781 s): 219.132 RLU
RLU (Time 134.781 s): 219.383 RLU
RLU (Time 136.781 s): 199.62 RLU
RLU (Time 137.562 s): 222.887 RLU
RLU (Time 143.562 s): 216.156 RLU
RLU (Time 149.562 s): 209.286 RLU
RLU (Time 155.562 s): 217.366 RLU
RLU (Time 161.562 s): 220.781 RLU
RLU (Time 167.562 s): 219.02 RLU
RLU (Time 173.562 s): 233.427 RLU
RLU (Time 179.562 s): 239.06 RLU
RLU (Time 185.562 s): 225.962 RLU
RLU (Time 191.562 s): 229.727 RLU
RLU (Time 197.562 s): 239.899 RLU
RLU (Time 203.562 s): 214.938 RLU
RLU (Time 209.562 s): 251.411 RLU
RLU (Time 215.562 s): 226.847 RLU
RLU (Time 221.562 s): 216.644 RLU
RLU (Time 227.562 s): 259.359 RLU
RLU (Time 233.562 s): 219.243 RLU
RLU (Time 239.562 s): 236.142 RLU
RLU (Time 245.562 s): 237.626 RLU
RLU (Time 293.562 s): 221.03 RLU
RLU (Time 299.562 s): 234.317 RLU
RLU (Time 305.562 s): 241.837 RLU
RLU (Time 311.562 s): 254.495 RLU
RLU (Time 317.562 s): 265.787 RLU
RLU (Time 323.562 s): 251.038 RLU
RLU (Time 329.562 s): 233.221 RLU
RLU (Time 335.562 s): 247.117 RLU
RLU (Time 341.562 s): 273.956 RLU
RLU (Time 347.562 s): 268.956 RLU
RLU (Time 353.562 s): 264.083 RLU
RLU (Time 359.562 s): 275.281 RLU
Activation threshold concentration Tas2r108 (p < 0.01 vs empty vector): 100 µM

Receptor response Tas2r108 (screening): does not respond
Structure (SMILES): C[C@H](CCC(=O)O)[C@H]1CC[C@H]2[C@@H]3[C@@H](O)C[C@@H]4C[C@H](O)CC[C@]4(C)[C@H]3CC[C@]12C [Ursodeoxycholic Acid, ursodeoxycholic acid]

Reference: PMC10247784, “Physiological activation of human and mouse bitter taste receptors by bile acids” (Communications Biology, 2023)
